Experimental data reported in US20090149495A1, “COMPOUNDS” (priority 2005, published 2009).
pKi: −log10 of the molar value.

Columns and labels:
[1] = target: mGluR5; test: MGluR5 receptor binding test ([3H]-M-MPEP displacement); design: species or system rat or human; conditions: radioligand [3H]-M-MPEP 2 nM; table does not say rat cortical membranes or hmGluR5a cells; read-out: mGlu5 Ki
Description: MGluR5 receptor binding was determined according to Gasparini et.al. (Bioorg. Med. Chem. Lett. 2000, 12:407-409) with modifications. Rat cerebro-cortical membrane preparation was used to determine the binding characteristics of reference compounds and novel compounds to the rat mGluR5. The A18 cell line expressing hmGluR5a (purchased from Euroscreen) was used to determine binding characteristics of the chemical compounds to the human mGluR5a receptor. As radioligand [3H]-M-MPEP (2 nM) was used. The nonspecific binding was determined in the presence of 10 μM M-MPEP.

[2] = target: T1, mGluR1 (Rattus norvegicus, UniProt P23385); test: MGluR1 receptor binding test ([3H]R214127 displacement, rat cerebellar membrane); conditions: rat cerebellar membranes; radioligand [3H]R214127 3 nM; read-out: mGlu1 Ki
T1 construct: rat cerebellar membrane preaparation was used; from tissue; host or cells: rat cerebellum (membrane preparation)
Description: MGluR1 receptor binding tests were performed according to modified method of Lavreysen et al. (Mol.Pharm., 2003, 63, 1082). Based on the high homology between the human and rat mGluR1 receptors, rat cerebellar membrane preaparation was used to determine the binding characteristics of reference compounds and novel compounds to the rat mGluR1. As radioligand [3H]R214127 (3 nM) was used and the nonspecific binding was determined in the presence of 1 μM of R214127.
IC-50 values were determined from displacement curves by nonlinear regression analysis and were converted by equation method of Cheng and Prusoff (Biochem. Pharmacol., 1973, 22, 3099) to Ki values.

T1 sequence (P23385 19-1199): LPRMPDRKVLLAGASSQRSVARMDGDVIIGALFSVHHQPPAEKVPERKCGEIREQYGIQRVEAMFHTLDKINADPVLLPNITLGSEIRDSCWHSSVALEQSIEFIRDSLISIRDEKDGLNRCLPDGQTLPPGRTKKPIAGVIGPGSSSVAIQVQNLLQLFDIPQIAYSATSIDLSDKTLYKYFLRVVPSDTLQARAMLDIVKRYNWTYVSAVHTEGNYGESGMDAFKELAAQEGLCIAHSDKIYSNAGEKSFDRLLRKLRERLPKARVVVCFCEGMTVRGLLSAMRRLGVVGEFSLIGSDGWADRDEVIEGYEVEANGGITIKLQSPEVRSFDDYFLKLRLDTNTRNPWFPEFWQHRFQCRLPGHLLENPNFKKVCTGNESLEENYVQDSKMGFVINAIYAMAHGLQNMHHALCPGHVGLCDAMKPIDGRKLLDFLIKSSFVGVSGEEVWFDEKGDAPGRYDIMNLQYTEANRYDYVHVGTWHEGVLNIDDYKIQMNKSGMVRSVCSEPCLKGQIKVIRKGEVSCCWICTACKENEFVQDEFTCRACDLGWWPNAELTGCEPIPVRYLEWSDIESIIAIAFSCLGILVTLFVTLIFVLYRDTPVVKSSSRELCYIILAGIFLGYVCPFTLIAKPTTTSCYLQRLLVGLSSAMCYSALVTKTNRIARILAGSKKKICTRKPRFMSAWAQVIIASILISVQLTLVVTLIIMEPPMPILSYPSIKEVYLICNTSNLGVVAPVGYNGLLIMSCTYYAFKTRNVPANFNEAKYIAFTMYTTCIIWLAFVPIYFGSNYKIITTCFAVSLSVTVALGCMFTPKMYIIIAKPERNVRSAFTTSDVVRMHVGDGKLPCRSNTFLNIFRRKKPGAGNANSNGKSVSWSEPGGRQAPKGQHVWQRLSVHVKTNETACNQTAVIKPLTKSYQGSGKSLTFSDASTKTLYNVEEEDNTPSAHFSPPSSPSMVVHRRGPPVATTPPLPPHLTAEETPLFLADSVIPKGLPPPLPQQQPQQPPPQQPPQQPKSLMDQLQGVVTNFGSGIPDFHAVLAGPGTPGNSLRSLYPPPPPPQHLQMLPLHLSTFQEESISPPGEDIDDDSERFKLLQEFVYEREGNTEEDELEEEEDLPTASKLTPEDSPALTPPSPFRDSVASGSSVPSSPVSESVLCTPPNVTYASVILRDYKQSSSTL

pKi [1] | pKi [2] | SMILES
> 6.30 | < 6.30 | O=S(=O)(c1ccc(Cl)cc1)c1sc2nc(O)ccc2c1-c1ccc(Cl)cc1 [Compound 1, 2-(4-Chloro-Benzenesulfonyl)-3-(4-Chloro-Phenyl)-7H-Thieno[2,3-b]Pyridin-6-One]
> 6.30 | > 6.30 | N#Cc1cccc(S(=O)(=O)c2sc3nc(O)ccc3c2-c2ccc(Cl)cc2)c1 [Compound 2, 3-[3-(4-chloro-phenyl)-6-oxo-6,7-dihydro-thieno[2,3-b]pyridin-2-sulfonyl]-benzonitrile]
> 6.30 | > 6.30 | O=C(OCc1ccc(F)cc1)c1sc2[nH]c(=O)ccc2c1-c1ccc(Cl)cc1 [Compound 3, 3-(4-chloro-phenyl)-6-oxo-6,7-dihydro-thieno[2,3-b]pyridine-2-carboxylic acid 4-fluoro-benzyl ester]
< 6.30 | – | Cc1cccc(S(=O)(=O)c2sc3[nH]c(=O)ccc3c2-c2ccc(Cl)cc2)c1 [Compound 4, 3-(4-chloro-phenyl)-2-(toluene-3-sulfonyl)-7H-thieno[2,3-b]pyridin-6-one]
